Experimental data: PMC6572064, “Discovery of 2-(1-(3-(4-Chloroxyphenyl)-3-oxo- propyl)pyrrolidine-3-yl)-1H-benzo[d]imidazole-4-carboxamide: A Potent Poly(ADP-ribose) Polymerase (PARP) Inhibitor for Treatment of Cancer” (Molecules, 2019)
Where two headings read alike, the source gives them in different places.

Legend:
[1] = biological target: T1, PARP-1 (Homo sapiens, UniProt P09874); experiment: PARP-1 inhibition assay (PARP-1 Chemiluminescent Assay Kit, BPS Bioscience); format: biochemical; details: for inhibition at 0.01 µM: 10 nM compound
T1 construct: purchased BPS Bioscience 80569
Procedure: (§1) The PARP-1 and PARP-2 inhibition assays were performed in outsourcing, by a CRO company, Shanghai Medicilon Inc. (Shanghai, China). […] Briefly, PARP-1 or PARP-2 biotinylated substrate was incubated with compounds or solvent control at varying concentrations and an assay buffer containing the PARP-1 or PARP-2 enzyme.

[2] = biological target: T2, PARP-2 (Homo sapiens, UniProt Q9UGN5); experiment: PARP-2 inhibition assay (PARP-2 Chemiluminescent Assay Kit, BPS Bioscience); format: biochemical; details: for inhibition at 0.01 µM: 10 nM compound
T2 construct: purchased BPS Bioscience 80552
Procedure: as §1

[3] = tested on: MDA-MB-436 (a BRCA-1-mutated breast cancer cell line); experiment: Cell proliferation assay, three-day, CellTiter-Glo, MDA-MB-436; format: cell-based; details: for inhibition at 0.00508 µM / inhibition at 0.0152 µM / inhibition at 0.0457 µM / inhibition at 0.41 µM / inhibition at 1.23 µM / inhibition at 3.7 µM / inhibition at 11.11 µM / inhibition at 33.33 µM / inhibition at 100 µM / IC50: Homo sapiens; for inhibition at 0.00508 µM: MDA-MB-436, MDA-MB-436, Conc. 0.00508 uM; for inhibition at 0.0152 µM: MDA-MB-436, MDA-MB-436, Conc. 0.0152 uM; for inhibition at 0.0457 µM: MDA-MB-436, MDA-MB-436, Conc. 0.0457 uM; for inhibition at 0.41 µM: MDA-MB-436, MDA-MB-436, Conc. 0.41 uM; for inhibition at 1.23 µM: MDA-MB-436, MDA-MB-436, Conc. 1.23 uM; for inhibition at 3.7 µM: MDA-MB-436, MDA-MB-436, Conc. 3.70 uM; for inhibition at 11.11 µM: MDA-MB-436, MDA-MB-436, Conc. 11.11 uM; for inhibition at 33.33 µM: MDA-MB-436, MDA-MB-436, Conc. 33.33 uM; for inhibition at 100 µM: MDA-MB-436, MDA-MB-436, Conc. 100.00 uM
How it was run: (§2)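 Cells seeded overnight in 384-well plates, then exposed to compounds (DMSO stock diluted in medium) for 72 h at 37 °C, 5% CO2. Viability read as CellTiter-Glo luminescence after 60 min at room temperature.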

[4] = tested on: CAPAN-1 (a BRCA-2-mutated pancreatic cancer cell line); experiment: Cell proliferation assay, three-day, CellTiter-Glo, CAPAN-1; format: cell-based; details: for IC50 / inhibition at 0.00508 µM / inhibition at 0.0152 µM / inhibition at 0.0457 µM / inhibition at […] / inhibition at 0.41 µM / inhibition at 1.23 µM / inhibition at 3.7 µM / inhibition at 11.11 µM / inhibition at 33.33 µM / inhibition at 100 µM: Homo sapiens; for inhibition at 0.00508 µM: CAPAN-1, 0.00508 uM; for inhibition at 0.0152 µM: CAPAN-1, 0.0152 uM; for inhibition at 0.0457 µM: CAPAN-1, 0.0457 uM; for inhibition at […]: CAPAN-1, 0.14 uM; for inhibition at 0.41 µM: CAPAN-1, 0.41 uM; for inhibition at 1.23 µM: CAPAN-1, 1.23 uM; for inhibition at 3.7 µM: CAPAN-1, 3.70 uM; for inhibition at 11.11 µM: CAPAN-1, 11.11 uM; for inhibition at 33.33 µM: CAPAN-1, 33.33 uM; for inhibition at 100 µM: CAPAN-1, 100.00 uM
How it was run: as §2

T1 sequence (P09874 whole entry): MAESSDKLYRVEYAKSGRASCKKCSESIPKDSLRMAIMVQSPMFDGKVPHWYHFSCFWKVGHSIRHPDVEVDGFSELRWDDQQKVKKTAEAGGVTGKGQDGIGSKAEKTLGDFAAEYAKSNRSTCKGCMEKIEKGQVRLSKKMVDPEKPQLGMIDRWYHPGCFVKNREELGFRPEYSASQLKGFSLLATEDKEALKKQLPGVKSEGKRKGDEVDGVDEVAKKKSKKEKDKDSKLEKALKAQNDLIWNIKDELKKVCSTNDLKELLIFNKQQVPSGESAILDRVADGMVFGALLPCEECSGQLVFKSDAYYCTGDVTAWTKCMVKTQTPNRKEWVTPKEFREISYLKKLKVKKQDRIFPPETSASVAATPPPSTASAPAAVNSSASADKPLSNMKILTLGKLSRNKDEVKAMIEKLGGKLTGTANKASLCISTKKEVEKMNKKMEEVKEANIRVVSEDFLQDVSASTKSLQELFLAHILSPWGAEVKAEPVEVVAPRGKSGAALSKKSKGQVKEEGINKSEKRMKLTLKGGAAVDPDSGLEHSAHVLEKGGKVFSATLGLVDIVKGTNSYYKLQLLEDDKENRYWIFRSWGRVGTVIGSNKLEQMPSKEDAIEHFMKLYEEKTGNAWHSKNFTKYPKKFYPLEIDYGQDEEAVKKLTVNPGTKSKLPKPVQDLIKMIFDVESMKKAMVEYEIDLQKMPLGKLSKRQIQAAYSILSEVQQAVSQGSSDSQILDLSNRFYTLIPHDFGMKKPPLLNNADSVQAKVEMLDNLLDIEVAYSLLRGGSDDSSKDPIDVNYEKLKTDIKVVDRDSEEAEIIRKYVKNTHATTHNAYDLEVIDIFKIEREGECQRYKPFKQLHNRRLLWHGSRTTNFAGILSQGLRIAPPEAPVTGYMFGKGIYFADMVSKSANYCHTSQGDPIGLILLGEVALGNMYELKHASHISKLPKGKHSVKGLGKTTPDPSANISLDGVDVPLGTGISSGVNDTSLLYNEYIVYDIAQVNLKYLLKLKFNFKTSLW
T2 sequence (Q9UGN5 whole entry): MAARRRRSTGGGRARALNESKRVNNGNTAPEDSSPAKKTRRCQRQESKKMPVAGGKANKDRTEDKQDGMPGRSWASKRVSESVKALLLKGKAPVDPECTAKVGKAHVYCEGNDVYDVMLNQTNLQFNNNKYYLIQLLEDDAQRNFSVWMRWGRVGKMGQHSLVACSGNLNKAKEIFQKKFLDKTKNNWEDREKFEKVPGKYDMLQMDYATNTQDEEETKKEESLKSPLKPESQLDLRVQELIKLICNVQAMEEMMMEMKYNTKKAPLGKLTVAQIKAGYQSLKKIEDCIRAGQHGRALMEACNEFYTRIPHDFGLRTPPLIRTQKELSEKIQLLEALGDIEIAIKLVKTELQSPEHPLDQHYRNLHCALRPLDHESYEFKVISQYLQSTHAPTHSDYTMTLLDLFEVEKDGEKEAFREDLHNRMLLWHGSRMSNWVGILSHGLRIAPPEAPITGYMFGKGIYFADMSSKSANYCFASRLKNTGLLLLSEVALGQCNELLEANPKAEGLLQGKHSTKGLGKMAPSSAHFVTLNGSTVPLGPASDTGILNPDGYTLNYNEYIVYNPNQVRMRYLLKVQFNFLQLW

Question: With `NC(=O)c1cccc2[nH]c(C3CCN(CCC(=O)c4ccc(Cl)cc4)C3)nc12` (centres unmarked) [Compound 5cj] as the compound, how does the inhibition at 0.01 µM ([1]; supplement sheet, read-out: 10 nM inhibition% PAPR-1) read?
Answer: 65.7%

Question: And the inhibition at 0.01 µM ([1]; read-out: PARP-1 Inhibition % (10 nM))?
Answer: 65.7%

Question: And the IC50 ([1]; read-out: PARP-1 IC50)?
Answer: 0.0039 µM

Question: What about the IC50 ([1]; supplement sheet, read-out: IC50 PAPR-1) of the same compound?
Answer: 0.00389 µM

Question: What about the inhibition at 0.01 µM ([2]; supplement sheet, read-out: 10 nM inhibition% PAPR-2) of the same compound?
Answer: 65.5%

Question: And the inhibition at 0.01 µM ([2]; read-out: PARP-2 Inhibition % (10 nM))?
Answer: 65.6%

Question: What about the IC50 ([2]; read-out: PARP-2 IC50) of the same compound?
Answer: 0.0042 µM

Question: And the IC50 ([2]; supplement sheet, read-out: IC50 PAPR-2)?
Answer: 0.00422 µM

Question: What about the inhibition at 0.00508 µM ([3]; replicate 1, read-out: Inh % 1) of the same compound?
Answer: -7.9%

Question: And the inhibition at 0.00508 µM ([3]; replicate 2, read-out: Inh % 2)?
Answer: -1.6%

Question: What about the inhibition at 0.0152 µM ([3]; replicate 1, read-out: Inh % 1) of the same compound?
Answer: -3%

Question: And the inhibition at 0.0152 µM ([3]; replicate 2, read-out: Inh % 2)?
Answer: -9.8%

Question: And the inhibition at 0.0457 µM ([3]; replicate 1, read-out: Inh % 1)?
Answer: -14.2%

Question: What about the inhibition at 0.0457 µM ([3]; replicate 2, read-out: Inh % 2) of the same compound?
Answer: -14.3%

Question: What about the inhibition at 0.41 µM ([3]; replicate 1, read-out: Inh % 1) of the same compound?
Answer: -16.8%

Question: And the inhibition at 0.41 µM ([3]; replicate 2, read-out: Inh % 2)?
Answer: -14.6%

Question: And the inhibition at 1.23 µM ([3]; replicate 1, read-out: Inh % 1)?
Answer: -8.7%

Question: And the inhibition at 1.23 µM ([3]; replicate 2, read-out: Inh % 2)?
Answer: -14.5%

Question: And the inhibition at 3.7 µM ([3]; replicate 1, read-out: Inh % 1)?
Answer: -10.6%

Question: What about the inhibition at 3.7 µM ([3]; replicate 2, read-out: Inh % 2) of the same compound?
Answer: -13.6%

Question: What about the inhibition at 11.11 µM ([3]; replicate 1, read-out: Inh % 1) of the same compound?
Answer: 10.8%

Question: And the inhibition at 11.11 µM ([3]; replicate 2, read-out: Inh % 2)?
Answer: 8.2%

Question: And the inhibition at 33.33 µM ([3]; replicate 1, read-out: Inh % 1)?
Answer: 93.8%

Question: What about the inhibition at 33.33 µM ([3]; replicate 2, read-out: Inh % 2) of the same compound?
Answer: 82.1%

Question: What about the inhibition at 100 µM ([3]; replicate 1, read-out: Inh % 1) of the same compound?
Answer: 99.7%

Question: And the inhibition at 100 µM ([3]; replicate 2, read-out: Inh % 2)?
Answer: 98.9%

Question: What about the IC50 ([3]; MDA-MB-436, 72 h, CellTiter-Glo, read-out: MDA-MB-436 IC50) of the same compound?
Answer: 17.4 µM

Question: And the IC50 ([3]; MDA-MB-436, 72 h, supplement Summary sheet, read-out: IC50)?
Answer: 17.4 µM

Question: And the IC50 ([3]; MDA-MB-436, curve fit list, no unit in the cell, concentration in uM, read-out: IC50)?
Answer: 17.4 µM

Question: What about the LogIC50 ([3]; MDA-MB-436, curve fit on Log (uM) concentrations) of the same compound?
Answer: 1.241

Question: What about the Bottom ([3]; MDA-MB-436, curve fit parameter (Inh %)) of the same compound?
Answer: -11.12

Question: What about the Top ([3]; MDA-MB-436, curve fit parameter (Inh %), '= 100.0' is a constrained value) of the same compound?
Answer: 99.53

Question: And the LogIC50 ([4]; CAPAN-1, curve-fit output, Log (uM))?
Answer: 1.057

Question: What about the IC50 ([4]; CAPAN-1, 72 h, CellTiter-Glo, read-out: CAPAN-1 IC50) of the same compound?
Answer: 11.4 µM

Question: And the inhibition at 0.00508 µM ([4]; replicate 1, read-out: Inh % 1)?
Answer: 9.5%

Question: And the inhibition at 0.00508 µM ([4]; replicate 2, read-out: Inh % 2)?
Answer: -1.4%

Question: And the inhibition at 0.0152 µM ([4]; replicate 1, read-out: Inh % 1)?
Answer: 3.1%

Question: What about the inhibition at 0.0152 µM ([4]; replicate 2, read-out: Inh % 2) of the same compound?
Answer: -2.2%

Question: What about the inhibition at 0.0457 µM ([4]; replicate 1, read-out: Inh % 1) of the same compound?
Answer: 3.3%

Question: What about the inhibition at 0.0457 µM ([4]; replicate 2, read-out: Inh % 2) of the same compound?
Answer: 3.4%

Question: What about the inhibition at […] ([4]; replicate 1, read-out: Inh % 1) of the same compound?
Answer: 13.7%

Question: And the inhibition at […] ([4]; replicate 2, read-out: Inh % 2)?
Answer: -6.2%

Question: And the inhibition at 0.41 µM ([4]; replicate 1, read-out: Inh % 1)?
Answer: 2.9%

Question: What about the inhibition at 0.41 µM ([4]; replicate 2, read-out: Inh % 2) of the same compound?
Answer: 7.7%

Question: And the inhibition at 1.23 µM ([4]; replicate 1, read-out: Inh % 1)?
Answer: -2.6%

Question: And the inhibition at 1.23 µM ([4]; replicate 2, read-out: Inh % 2)?
Answer: 0.5%

Question: And the inhibition at 3.7 µM ([4]; replicate 1, read-out: Inh % 1)?
Answer: 7.7%

Question: What about the inhibition at 3.7 µM ([4]; replicate 2, read-out: Inh % 2) of the same compound?
Answer: 2.2%

Question: What about the inhibition at 11.11 µM ([4]; replicate 1, read-out: Inh % 1) of the same compound?
Answer: 54.1%

Question: What about the inhibition at 11.11 µM ([4]; replicate 2, read-out: Inh % 2) of the same compound?
Answer: 45.1%

Question: What about the inhibition at 33.33 µM ([4]; replicate 1, read-out: Inh % 1) of the same compound?
Answer: 97.9%

Question: And the inhibition at 33.33 µM ([4]; replicate 2, read-out: Inh % 2)?
Answer: 96.8%

Question: And the inhibition at 100 µM ([4]; replicate 1, read-out: Inh % 1)?
Answer: 99.6%

Question: And the inhibition at 100 µM ([4]; replicate 2, read-out: Inh % 2)?
Answer: 98.9%

Question: What about the IC50 ([4]; CAPAN-1, 72 h, supplement Summary sheet, read-out: IC50) of the same compound?
Answer: 11.4 µM

Question: What about the IC50 ([4]; CAPAN-1, curve-fit output, concentrations in uM, read-out: IC50) of the same compound?
Answer: 11.4 µM
